Data on 20 molecules can be found in PMC11767929 (Molecules, 2025).

Where two headings read alike, the source gives them in different places.

Common to all, as to assay type: cell-based
Series [1] has as its system HCT 116 (human colorectal cancer cell line). The series is described as follows: MTT cytotoxicity assay, HCT 116 cells. Conditions: for IC50: Homo sapiens, HCT-116, 24 h, read-out: IC50 HCT 116; for SI (HCT 116): selectivity index: ratio of IC50 NHDF-Neo to IC50 HCT 116. The procedure:
(§1) Cytotoxicity screening of the obtained glycoconjugates, their potential metabolites, and substrates used for their synthesis was conducted using the MTT assay.
(§2) All cells were kept in a humidified incubator at 37 °C in a 5% CO2 atmosphere.
(§3) Cell viability was assessed by the MTT (3-[4,5–dimethylthiazol-2-yl]-2,5-diphenyltetrazolium bromide) test (ACROS Organics). Stock solutions of tested compounds were prepared in DMSO and stored accordingly.
(§4) Cells treated with glycoconjugates or potential metabolites were incubated for another 24–72 h (depending on the cell line). Subsequently, 50 µL MTT solution (0.5 mg/mL) in RPMI medium without Phenol Red was added to each well. After 3 h of incubation, the MTT solution was removed, and the precipitated formazan was dissolved in 100 µL of DMSO. Finally, the absorbance of the solubilized formazan crystals was measured at the 570 nm wavelength. Each experiment was carried out in three independent iterations with four technical repetitions. […] Cell viability was expressed as:Cell viability (%) = (ODsample − ODblank)/(ODcontrol − ODblank) × 100%.

The test system of series [2] is MCF-7 (human breast adenocarcinoma cell line). Nature of the series: MTT cytotoxicity assay, MCF-7 cells. Conditions: for IC50: Homo sapiens, read-out: IC50 MCF-7; for SI (MCF-7): selectivity index: ratio of IC50 NHDF-Neo to IC50 MCF-7. The procedure:
as §1, §2, §3, §4

Series [3] concerns NHDF-Neo (normal human dermal fibroblast-neonatal cells). The series is described as follows: MTT cytotoxicity assay, NHDF-Neo healthy cells. The following applies: read-out: IC50 NHDF-Neo. The procedure:
as §1, §2, §3, §4

Series [4] has as its system HCT 116 (human colorectal cancer cell line). The series is described as follows: MTT assay in medium with 20 µM CuCl2, HCT 116 cells. Conditions: addition of CuCl2 at 20 µM; for IC50: Homo sapiens, HCT-116, MTT assay, 24 h, read-out: IC50 HCT 116 + Cu2+; for SI (HCT 116) + Cu2+: ratio of IC50 NHDF-Neo to IC50 HCT 116. As for the experimental part:
(§5) Therefore, it seemed reasonable to conduct additional experiments for the glycoconjugates for which the likely mechanism of action is based on the chelation of metal ions. Since copper can be toxic to cells, it was necessary to test the toxicity of different concentrations of copper salt on the proliferation of all cell line types. Cell cultures under standard conditions were treated with copper solutions of various concentrations, and their effect on cell proliferation was verified by the MTT assay. Cells with the non-supplemented medium were used as a reference for 100% cell viability. […] The antiproliferative activities of 8-AQ glycoconjugates were further tested in the presence of the addition of Cu^2+ ions. HCT 116, MCF-7, and NHDF-Neo cells were treated with solutions of glycoconjugates 13–18 in a culture medium supplemented with 20 µM copper chloride, and their proliferation was measured using the MTT assay. The control consisted of cells cultured in a medium with the same concentration of copper salt added. […] This effect was more pronounced for the MCF-7 cell line (Figure 2). A significant decrease in MCF-7 cell proliferation was observed after treatment with glycoconjugates at concentrations of 100 µM and 50 µM in the presence of Cu^2+ compared to treatment with glycoconjugates alone (cell viability 2–23% and 6–79%, respectively, for each glycoconjugate concentration).
(§6) Cells were seeded in 96-well plates at a concentration of 1 × 10^4 (HCT 116, NHDF-Neo) or 5 × 10^3 (MCF-7) per well. Cell cultures were incubated for 24 h at 37 °C in a humidified atmosphere with 5% CO2. The culture medium was then removed and replaced with 100 µL of the tested compounds solution at varying concentrations (from 25 µM to 200 µM) in the medium with the addition of CuCl2. The final concentration of CuCl2 was 20 µM in each well. Following 24 or 72 h of incubation, the MTT assay was performed to assess cell viability.

For series [5], the system named is MCF-7 (human breast adenocarcinoma cell line). Nature of the series: MTT assay in medium with 20 µM CuCl2, MCF-7 cells. Conditions: for IC50: Homo sapiens, MCF7, MTT assay, 72 h, read-out: IC50 MCF-7 + Cu2+; for IC50 / SI (MCF-7) + Cu2+: addition of CuCl2 at 20 µM; for increase of cytotoxicity in the presence of Cu(II) ions versus without copper: MCF-7 cells, 20 µM CuCl2; for SI (MCF-7) + Cu2+: ratio of IC50 NHDF-Neo to IC50 MCF-7. The procedure: as §5, §6

In series [6] the test system is NHDF-Neo (normal human dermal fibroblast-neonatal cells). The series is described as follows: MTT assay in medium with 20 µM CuCl2, NHDF-Neo cells. The following applies: addition of CuCl2 at 20 µM, 24 h, read-out: IC50 NHDF-Neo + Cu2+. The procedure:
as §5, §6

Setting [7] is: MTT assay, incubation time 24 h.
[8] abbreviates: MCF7, MTT assay, incubation time 72 h.

`Nc1cccc2cccnc12` [Compound 1, 8-Aminoquinoline, reference compound]: the IC50 is more than 800 µM in series [1]; more than 400 µM in series [2] (MCF7, 72 h); more than 800 µM in series [3] (24 h).

For `Oc1cccc2cccnc12` [Compound 2, 8-hydroxyquinoline, reference compound], the IC50 in series [1] stood at 9.33 ± 0.22 µM; in series [2] (MCF7, 72 h), 3.01 ± 0.05 µM; in series [3] (24 h), 9.34 ± 0.25 µM. The “SI (HCT 116)” value in series [1] is recorded as 1. Further, the “SI (MCF-7)” value in series [2] amounted to 3.1.

As to `C#CCNc1cccc2cccnc12` [Compound 3, N-(prop-2-yn-1-yl)quinolin-8-amine], the values for the 50% inhibitory concentration (IC50) in series [1] (setting [7]), in series [2] (setting [8]) and in series [3] (setting [7]) were 550 ± 16.4 µM, 295 ± 8.49 µM and more than 800 µM, respectively.

`[N-]=[N+]=NCCCNc1cccc2cccnc12` [Compound 5, N-(3-azidopropyl)quinolin-8-amine]: the concentration for half-maximal inhibition (IC50) in series [1] (setting [7]) was 115 ± 13.4 µM; in series [2] (setting [8]), 47.1 ± 8.49 µM; in series [3] (setting [7]) it was 415 ± 10.6 µM.

As to `[N-]=[N+]=NCCCOc1cccc2cccnc12` [Compound 6, 8-(3-azidopropoxy)quinoline], the concentration for half-maximal inhibition (IC50) in series [3] (24 h) came out at 782 ± 8.7 µM.

Consider `CC(=O)OC[C@H]1O[C@@H](N=[N+]=[N-])[C@H](OC(C)=O)[C@@H](OC(C)=O)[C@@H]1OC(C)=O` [Compound 7, 2,3,4,6-tetra-O-acetyl-β-D-glucopyranosyl azide], for which the IC50 in series [1] (setting [7]), in series [2] (setting [8]) and in series [3] (setting [7]) was more than 800 µM in each case.

For `CC(=O)OC[C@H]1O[C@@H](N=[N+]=[N-])[C@H](OC(C)=O)[C@@H](OC(C)=O)[C@H]1OC(C)=O` [Compound 8, 2,3,4,6-tetra-O-acetyl-β-D-galactopyranosyl azide], the IC50 in series [1] (setting [7]), in series [2] (setting [8]) and in series [3] (setting [7]) was more than 800 µM in each case.

Consider `CC(=O)OC[C@H]1O[C@@H](OCCN=[N+]=[N-])[C@H](OC(C)=O)[C@@H](OC(C)=O)[C@@H]1OC(C)=O` [Compound 9, 2-azidoethyl 2,3,4,6-tetra-O-acetyl-β-D-glucopyranoside], for which the IC50 in series [1] (setting [7]), in series [2] (setting [8]) and in series [3] (setting [7]) was more than 800 µM each time.

Turning to `CC(=O)OC[C@H]1O[C@@H](OCCN=[N+]=[N-])[C@H](OC(C)=O)[C@@H](OC(C)=O)[C@H]1OC(C)=O` [Compound 10, 2-azidoethyl 2,3,4,6-tetra-O-acetyl-β-D-galactopyranoside], the concentration for half-maximal inhibition (IC50) in series [1] (setting [7]), in series [2] (setting [8]) and in series [3] (setting [7]) was more than 800 µM in each case.

With `C#CCO[C@@H]1O[C@H](COC(C)=O)[C@@H](OC(C)=O)[C@H](OC(C)=O)[C@H]1OC(C)=O` [Compound 11, propargyl 2,3,4,6-tetra-O-acetyl-β-D-glucopyranoside], the 50% inhibitory concentration (IC50) in series [1] (setting [7]), in series [2] (setting [8]) and in series [3] (setting [7]) was more than 800 µM each time.

As to `C#CCO[C@@H]1O[C@H](COC(C)=O)[C@H](OC(C)=O)[C@H](OC(C)=O)[C@H]1OC(C)=O` [Compound 12, propargyl 2,3,4,6-tetra-O-acetyl-β-D-galactopyranoside], the half-maximal inhibitory concentration (IC50) in series [1] (setting [7]), in series [2] (setting [8]) and in series [3] (setting [7]) was more than 800 µM in each case.

On to `CC(=O)OC[C@H]1O[C@@H](n2cc(CNc3cccc4cccnc34)nn2)[C@H](OC(C)=O)[C@@H](OC(C)=O)[C@@H]1OC(C)=O` [Compound 13], for which the IC50 is more than 800 µM in series [1] (setting [7]); more than 800 µM in series [2] (setting [8]); more than 800 µM in series [3] (setting [7]); 118 ± 5 µM in series [4]; 71.3 ± 4.5 µM in series [5]. In addition, the “SI (HCT 116) + Cu2+” value in series [4] is more than 1.7. Further, the “increase of cytotoxicity in the presence of Cu(II) ions versus without copper” value in series [5] is “more than ten times”. In addition, in series [5], the “SI (MCF-7) + Cu2+” value is reported as more than 2.8. In addition, the CC50 in series [6] is more than 200 µM.

For the molecule `CC(=O)OC[C@H]1O[C@@H](n2cc(COc3cccc4cccnc34)nn2)[C@H](OC(C)=O)[C@@H](OC(C)=O)[C@@H]1OC(C)=O` [Compound 13a, reference compound], the figures for the concentration for half-maximal inhibition (IC50) in series [1] (setting [7]), in series [2] (setting [8]) and in series [3] (setting [7]) were 69 ± 2.5 µM, 57.7 ± 3.3 µM and 57.4 ± 3.2 µM, respectively. Further, in series [1], the “SI (HCT 116)” value amounted to 0.8. Further, the “SI (MCF-7)” value in series [2] is given as 1.0.

In the case of `CC(=O)OC[C@H]1O[C@@H](n2cc(CNc3cccc4cccnc34)nn2)[C@H](OC(C)=O)[C@@H](OC(C)=O)[C@H]1OC(C)=O` [Compound 14], the IC50 in series [1] (setting [7]) was 282 ± 20.7 µM; in series [2] (setting [8]) it was 204.2 ± 1.4 µM; in series [3] (setting [7]) it was more than 800 µM; in series [4], 87.1 ± 15.9 µM; in series [5] it was 34.7 ± 5 µM. The “SI (HCT 116)” value in series [1] was more than 2.8. Further, the “SI (MCF-7)” value in series [2] was more than 3.9. Also, the “increase of cytotoxicity in the presence of Cu(II) ions versus without copper” value in series [5] is “approximately six-fold”. Besides, in series [5], the “SI (MCF-7) + Cu2+” value is listed as more than 5.8. In series [6], the CC50 was more than 200 µM.

For the molecule `CC(=O)OC[C@H]1O[C@@H](n2cc(COc3cccc4cccnc34)nn2)[C@H](OC(C)=O)[C@@H](OC(C)=O)[C@H]1OC(C)=O` [Compound 14a, reference compound], the half-maximal inhibitory concentration (IC50) in series [1] (setting [7]) amounted to 22.7 ± 1.6 µM; in series [2] (setting [8]), 4.1 ± 0.03 µM; in series [3] (setting [7]) it was 31.9 ± 1.6 µM. The “SI (HCT 116)” value in series [1] came to 1.4. Also, in series [2], the “SI (MCF-7)” value was 7.8.

Regarding `CC(=O)OC[C@H]1O[C@@H](OCCn2cc(CNc3cccc4cccnc34)nn2)[C@H](OC(C)=O)[C@@H](OC(C)=O)[C@@H]1OC(C)=O` [Compound 15], the IC50 in series [1] (setting [7]) is 284.2 ± 2.3 µM; in series [2] (setting [8]), 103 ± 5.7 µM; in series [3] (setting [7]), more than 800 µM; in series [4], 80.5 ± 2.2 µM; in series [5], 34.1 ± 5 µM. For the same molecule, the “SI (HCT 116)” value in series [1] was more than 2.8. The “SI (MCF-7)” value in series [2] is given as more than 7.8. Besides, the “SI (HCT 116) + Cu2+” value in series [4] was more than 2.5. For the same molecule, in series [5], the “SI (MCF-7) + Cu2+” value is given as more than 5.9. Further, the CC50 in series [6] is more than 200 µM.

In the case of `OCCn1cc(CNc2cccc3cccnc23)nn1` [Compound 19], in series [1], the “SI (HCT 116)” value was more than 1.2. Besides, the 50% inhibitory concentration (IC50) in series [2] (setting [8]) was 116 ± 2.7 µM; in series [3] (setting [7]), more than 800 µM. Also, in series [2], the “SI (MCF-7)” value is given as more than 6.9.

As to `OCCn1cc(COc2cccc3cccnc23)nn1` [Compound 19a, reference compound], the IC50 in series [1] (setting [7]), in series [2] (setting [8]) and in series [3] (setting [7]) was more than 800 µM throughout.

As to `OCc1cn(CCCNc2cccc3cccnc23)nn1` [Compound 20, 4-Hydroxymethyl-1-(8-quinolinylaminopropyl)-1H-1,2,3-triazol], the concentration for half-maximal inhibition (IC50) in series [1] (setting [7]) is 329 ± 5.4 µM; in series [2] (setting [8]) it was 150 ± 1.8 µM; in series [3] (setting [7]) it was more than 800 µM. In series [1], the “SI (HCT 116)” value is more than 2.4. In addition, the “SI (MCF-7)” value in series [2] is reported as more than 5.3.

`OCc1cn(CCCOc2cccc3cccnc23)nn1` [Compound 20a, reference compound]: the half-maximal inhibitory concentration (IC50) in series [1] (setting [7]) was more than 800 µM; in series [2] (setting [8]) it was 602.9 ± 1.9 µM; in series [3] (setting [7]), more than 800 µM. In addition, the “SI (MCF-7)” value in series [2] is more than 1.3.
